{"source": "paper PMC2825141", "about": "(Journal of medicinal chemistry, 2009)", "key": {"G9a [1]": {"target": "T1, G9a (Homo sapiens, UniProt Q96KQ7)", "T1 sequence (Q96KQ7 1-1210)": "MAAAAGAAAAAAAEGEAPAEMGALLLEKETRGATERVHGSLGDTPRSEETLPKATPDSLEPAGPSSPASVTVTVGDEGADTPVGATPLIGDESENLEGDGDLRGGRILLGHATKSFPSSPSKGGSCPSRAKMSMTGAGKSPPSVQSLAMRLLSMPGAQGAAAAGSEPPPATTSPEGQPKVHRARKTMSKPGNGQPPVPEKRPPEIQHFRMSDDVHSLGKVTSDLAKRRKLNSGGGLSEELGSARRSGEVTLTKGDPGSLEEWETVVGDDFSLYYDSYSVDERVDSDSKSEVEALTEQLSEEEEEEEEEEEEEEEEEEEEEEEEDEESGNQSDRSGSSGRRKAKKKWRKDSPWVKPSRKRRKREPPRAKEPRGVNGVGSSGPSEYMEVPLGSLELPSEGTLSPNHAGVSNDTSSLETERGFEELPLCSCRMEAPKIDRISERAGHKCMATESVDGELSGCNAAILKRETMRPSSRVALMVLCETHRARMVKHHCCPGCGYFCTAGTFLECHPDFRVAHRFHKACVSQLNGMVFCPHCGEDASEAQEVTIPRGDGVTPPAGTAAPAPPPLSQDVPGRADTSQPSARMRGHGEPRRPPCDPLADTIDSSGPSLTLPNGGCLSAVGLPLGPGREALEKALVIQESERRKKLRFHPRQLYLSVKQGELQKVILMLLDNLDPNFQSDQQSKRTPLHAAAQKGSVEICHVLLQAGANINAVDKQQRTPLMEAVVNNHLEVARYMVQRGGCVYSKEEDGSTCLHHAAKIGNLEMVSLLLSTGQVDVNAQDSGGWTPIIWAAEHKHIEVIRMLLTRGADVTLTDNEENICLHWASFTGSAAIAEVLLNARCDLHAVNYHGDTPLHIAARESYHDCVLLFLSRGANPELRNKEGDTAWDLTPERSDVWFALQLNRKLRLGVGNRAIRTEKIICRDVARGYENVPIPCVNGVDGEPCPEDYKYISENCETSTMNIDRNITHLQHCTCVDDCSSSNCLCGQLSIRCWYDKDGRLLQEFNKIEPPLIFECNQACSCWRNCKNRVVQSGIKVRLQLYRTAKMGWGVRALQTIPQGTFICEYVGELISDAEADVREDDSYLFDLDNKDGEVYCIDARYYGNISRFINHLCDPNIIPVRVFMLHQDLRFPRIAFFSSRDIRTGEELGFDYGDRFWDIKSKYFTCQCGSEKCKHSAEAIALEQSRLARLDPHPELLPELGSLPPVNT", "test": "DSF stabilization of G9a", "format": "binding", "details": "compared to 2a"}, "G9a [2]": {"target": "T1, G9a", "test": "G9a FP assay", "format": "binding", "details": "compared to 2a"}}, "data": [{"smiles": "COc1cc2c(NC3CCN(C)CC3)nc(N3CCCN(C)CC3)nc2cc1OCCCN(C)C", "note": "[Compound 8]", "values": [{"measurement": "Stabilization of G9a in DSF", "setting": "G9a [1]", "value": "stabilized G9a better compared to 2a"}, {"measurement": "Displacement of fluorescein labeled 15-mer H3 peptide (1–15)", "setting": "G9a [2]", "value": "displaced fluorescein labeled 15-mer H3 peptide (1–15) better than 2a"}]}]}
